{"source": "patent US10456441B2", "about": "“Augmenting the immune response by promoting cell death of immune cells” (The University of Vermont and State Agricultural College, priority 2014, dated 2019)", "key": {"[1]": {"details": "human trials; cited from earlier work"}, "BMDC": {"system": "BMDC", "assay": "Cell death of BMDC by TUNEL assay", "type": "cell-based, mice", "details": "GM-CSF-cultured BMDC, zVAD 50 μM + Necrostatin 50 μM", "protocol": "(§1) The preparation of bone marrow-derived dendritic cells (BMDC) was done according to the method of Lutz et al. (26) using GM-CSF ([…] PeproTech, Rocky Hill N.J.) or GM-CSF plus IL-4 (10 μg/ml, PeproTech). Cells were used on day 7.\n(§2) Cell death was examined by terminal deoxynucleotidyl transferase dUTP nick end labeling (TUNEL). Briefly, cells were stained for expression of cell surface molecules, and then fixed with 1% methanol-free formaldehyde followed by 70% ethanol. After washing, the TUNEL reaction was performed by incubating cells in 50 μl of reaction mix containing 10 units of terminal deoxribosyl transferase (TdT), 2.5 mM cobalt chloride in 1× TdT buffer, and 0.2 pmol/μl of FITC-dUTP (Roche, Indianapolis, Ind.) at 37° C. for 1 hour. The cells were washed twice and fixed in 1% methanol-free formaldehyde. Murine thymocytes were included as a positive control for apoptotic cells. Flow cytometry was performed on an LSRII (BD Biosciences, San Jose, Calif.) calibrated with compensation beads (BD Biosciences). Analysis was performed using FlowJo software (Tree Star, Inc., Ashland, Oreg.)."}, "γδ T cells": {"system": "γδ T cells", "assay": "Mixed cultures of γδ T cells and BMDC: γδ T cell activation (IL-17, IFN-γ, CD25)", "type": "cell-based, mice", "protocol": "Cells were washed three times and then rocked with goat anti-rat conjugated magnetic beads at a 10:1 ratio of beads to cell at 4° C. for 45 min. Magnetic depletion was used to remove bead-bound cells. […] After 2 days, cells were removed from anti-TCR-γδ stimulation, supplied with fresh medium plus IL-2, and returned to culture at a density of 0.3×10^6 cells/ml. Cells were counted daily and supplied with fresh media containing 50 units/ml IL-2. […] In addition, in some experiments freshly isolated splenic γδ T cells were prepared using anti-γδ-coated magnetic beads (Miltenyi Biotec) and magnet purification.\nas §1\nDay 7 γδ T cells and BMDC were cultured either individually or together at a 1:1 ratio (10^6 cells/ml each). To some cultures the following reagents were added: a sonicate of Borrelia burgdorferi (10 μg/ml), zVAD-fmk (MP Biomedical, Santa Ana Calif.) at the doses indicated, necrostatin (50 μM, R&D Systems, Minneapolis, Minn.), anti-TNF-α (10 μg/ml, Calbiochem, Darnstadt, Germany),, anti-IL-1 Receptor antagonist, Anakinra (200 ng/ml, Amgen, Thousand Oaks, Calif.), anti-IL-12 (10 μg/ml, BioLegend San Diego, Calif.), anti-IL-18 (10 μg/ml, MBL, Woburn Mass.), or rat IgG (10 μg/ml Jackson Immunoresearch, West Grove Pa.). Transwell assays were performed using 1×10^6 γδ T cells in 1 ml of complete medium+IL-2 placed in the lower chamber, with 5×10^5 DC in 100 μl placed in the upper chamber. […]\nCytokine levels of IFN-γ, IL-1β, IL-12p40, IL-12p70, IL-17, and TNF-α were detected using the Bio-Plex, MilliPlex, or Luminex immunoassay (Bio-Rad; Millipore-EMD; R&D Systems, Minneapolis, Minn.) according to the manufacturer's protocol. Briefly, samples were run undiluted or diluted 1:10 in RPMI complete media. 50 μl of the magnetic bead working solution was added to each well, then 50 μl of appropriate samples or standards were then added to wells and incubated at room temperature for 30-120 min at 800 rpm on an IKA MS 3 digital shaker. After three washes with 100 μl Bio-Plex wash buffer, incubation with 25 μl of detection antibody solution was done at room temperature for 30-60 min on the shaker. Following another set of three washes, 50 μl of streptavidin-phycoerythrin (PE) in assay buffer was added to each well and incubated as described for the previous step. After an additional three washes, 125 μl of assay buffer was added. Sample data was analyzed with Bio-Plex Manager software.\nThe following monoclonal antibodies to murine cell surface molecules were purchased from BioLegend: PE-conjugated anti-CD25, APC-conjugated anti-TCR-γδ, and TNF-α neutralizing antibody. Rat IgG was purchased from Jackson Immunoresearch (West Grove, Pa.). For direct staining, single cell suspensions (1×10^6 total cells per staining condition) were washed with cold (4° C.) PBS containing 1% (w/v) BSA fraction V (Sigma) (PBS/1% BSA), incubated with unconjugated rat IgG (50 μg/ml) for 15 min at 4° C., washed again, and then incubated with the appropriate antibodies in PBS/1% BSA. After washing, the cells were fixed with freshly made 1% (v/v) methanol-free formaldehyde (Ted Pella Inc., Redding, Calif.) in PBS/1% BSA."}, "c-FLIP, caspase-8": {"molecular_target": "T1, c-FLIP, caspase-8 (Mus musculus, UniProt O89110)", "T1 construct": "endogenous in cells; host or cells: bone marrow-derived dendritic cells (BMDC), day 7, grown in GM-CSF with or without IL-4; whole cell lysates and biotin-VAD precipitates", "T1 sequence (O89110 219-480)": "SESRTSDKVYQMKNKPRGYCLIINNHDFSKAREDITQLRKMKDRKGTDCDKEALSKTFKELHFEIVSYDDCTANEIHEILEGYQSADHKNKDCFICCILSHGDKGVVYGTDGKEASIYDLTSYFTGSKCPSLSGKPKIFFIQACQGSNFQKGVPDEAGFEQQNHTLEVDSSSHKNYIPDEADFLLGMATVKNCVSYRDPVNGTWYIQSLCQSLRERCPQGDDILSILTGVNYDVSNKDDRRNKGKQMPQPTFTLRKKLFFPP", "T1 sequence (O35732 whole entry partner)": "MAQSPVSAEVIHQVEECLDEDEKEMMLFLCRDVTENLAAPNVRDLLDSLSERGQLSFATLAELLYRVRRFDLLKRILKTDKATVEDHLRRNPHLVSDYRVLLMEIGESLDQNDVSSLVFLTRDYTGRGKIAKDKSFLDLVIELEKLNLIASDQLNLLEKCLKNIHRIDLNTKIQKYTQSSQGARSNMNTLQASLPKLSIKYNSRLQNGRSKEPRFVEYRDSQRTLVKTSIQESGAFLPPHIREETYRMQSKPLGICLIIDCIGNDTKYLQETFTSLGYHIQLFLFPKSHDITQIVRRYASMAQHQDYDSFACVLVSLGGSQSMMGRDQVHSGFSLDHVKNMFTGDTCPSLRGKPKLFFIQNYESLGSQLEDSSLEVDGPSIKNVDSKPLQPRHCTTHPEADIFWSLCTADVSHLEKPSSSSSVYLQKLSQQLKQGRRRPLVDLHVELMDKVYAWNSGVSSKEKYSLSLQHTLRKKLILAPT", "assay": "c-FLIP and active caspases in BMDC (biotin-VAD precipitation, immunoblot)", "type": "cell-based, mice", "protocol": "as §1\nDay 7 BMDC were lysed in Tris-buffer containing Complete Protease Inhibitor (Roche), 0.2% NP-40 (Roche), and biotin-VAD-fmk (10 μM, MP Biomedicals, Santa Ana, Calif.). Insoluble cell fragments were removed by centrifugation, and the protein concentration of the resulting whole cell lysates was determined by Bradford assay (BioRad, Hercules, Calif.). Whole cell lysates (30 μg per lane) were separated by SDS-PAGE. Precipitation of active caspases was performed by rocking 600 μg of whole cell lysates initially with sepharose 4B beads (Sigma) at 4° C. for 2 hours to remove nonspecific binding of proteins to the beads, followed by overnight rocking incubation with streptavidin-conjugated sepharose beads (Invitrogen) at 4° C. Release of biotin-VAD-fmk-labeled caspases from the streptavidin beads was achieved by heating to 95° C. for 10 min in Laemmli buffer. After gel electrophoresis, proteins were transferred to PVDF membranes (0.2 μm pore size, Bio-Rad), and immunoblots were performed using antibodies (1 μg/ml) against caspase-3, caspase-8 (both Cell Signaling, Danvers, Mass.), caspase-9 (Stressgen, Farmingdale, N.Y.), and RIPK1 (BD Biosciences)."}, "human DC": {"system": "human DC", "assay": "Cell death of human DC from peripheral blood monocytes", "type": "cell-based", "details": "addition of IL-4 to GM-CSF culture", "protocol": "as §2, with “Human monocytes were obtained as […] cells by magnetic bead purification (Miltenyi Biotech, Auburn, Calif.) from peripheral blood of healthy volunteers. Myeloid DC were prepared by culture of monocytes in AIM V media plus 10% fetal calf serum (HyClone) with 800 U/ml of granulocyte-macrophage colony-stimulating factor (GM-CSF), (BioLegend, San Diego, Calif.) without or with 500 U/ml IL-4 (BioLegend). Cell” for “Cell”"}, "[2]": {"details": "γδ T cells + BMDC + B. burgdorferi, zVAD+Necrostatin, 20 h"}, "[3]": {"details": "exogenous TNF-α (2.5 μg/ml) added, absence of Borrelia"}}}
{"compound": "C[C@H](NC(=O)C(=O)Nc1ccccc1C(C)(C)C)C(=O)N[C@@H](CC(=O)O)C(=O)COc1c(F)c(F)cc(F)c1F", "note": "[IDN-6556]", "values": [{"measurement": "preserving liver function during hepatitis C virus infection", "setting": "[1]", "result": "showing promise"}, {"measurement": "serious side-effects", "setting": "[1]", "result": "without exhibiting serious side-effects"}]}
{"compound": "CN1C(=O)C(Cc2c[nH]c3ccccc23)NC1=S", "note": "(centres unmarked) [Necrostatin]", "values": [{"measurement": "cell death of zVAD-treated BMDC", "setting": "BMDC", "result": "rescued them from cell death"}, {"measurement": "production of these cytokines (TNF-α, IL-17, IFN-γ); toxicity check", "setting": "γδ T cells; Necrostatin with Borrelia in the absence of zVAD", "result": "did not block production"}, {"measurement": "TNF-α production by zVAD-treated BMDC", "setting": "γδ T cells; [2]", "result": "reversed"}, {"measurement": "production of IFN-γ by γδ T cells", "setting": "γδ T cells; [2]", "result": "reversed"}, {"measurement": "production of IL-17 by γδ T cells", "setting": "γδ T cells; [2]", "result": "reversed"}]}
{"compound": "IL-4: cytokine added with GM-CSF during generation of BMDC; upregulates c-FLIP", "values": [{"measurement": "ability of BMDC to activate Borrelia-stimulated γδ T cells", "setting": "γδ T cells; BMDC grown with GM-CSF+IL-4, absence or presence of zVAD", "result": "much less able to activate"}, {"measurement": "level of c-FLIP", "setting": "c-FLIP, caspase-8; BMDC grown in GM-CSF+IL-4 vs GM-CSF, 7 days", "result": "considerably increased"}, {"measurement": "level of active caspase-8", "setting": "c-FLIP, caspase-8; BMDC grown in GM-CSF+IL-4 vs GM-CSF, bVAD precipitates", "result": "increase in the level of active caspase-8"}, {"measurement": "levels of total cellular caspase-8, caspase-9, or caspase-3", "setting": "c-FLIP, caspase-8; whole cell lysates, BMDC grown in GM-CSF or GM-CSF+IL-4", "result": "no difference"}, {"measurement": "zVAD-induced death of human DC", "setting": "human DC", "result": "blocked"}]}
{"compound": "TNF-α", "values": [{"measurement": "production of IFNγ by γδ T cells", "setting": "γδ T cells; [3]", "result": "did not augment production"}, {"measurement": "production of IL-17 by γδ T cells", "setting": "γδ T cells; [3]", "result": "did not augment production"}]}
